# Measured values published in paper PMC10246002 (bioRxiv, 2023).
# System: human tracheobronchial epithelial cells (hTECs)
# Assay type: cell-based
# Conditions: hTEC ALI culture with IL-13, resazurin assay
smiles,measurement,value
"Cc1ccc(-n2nc(C(C)(C)C)cc2NC(=O)Nc2ccc(OCCN3CCOCC3)c3ccccc23)cc1 [NuP-43, BIRB-796]",number of viable cells,no significant effects
